# Measurements reported in ChEMBL document CHEMBL1153522, “Spirocyclic delta opioid receptor agonists for the treatment of pain: discovery of N,N-diethyl-3-hydroxy-4-(spiro[chromene-2,4'-piperidine]-4-yl) benzamide (ADL5747)” (J Med Chem, 2009).
# Legend:
# [1] = Half life in Beagle dog at 3 mg/kg, po administered as single dose; assay type: ADME, organism-based, Canis lupus familiaris; design: dose 3 mg/kg, route oral; details: in vivo
# [2] = Metabolic stability in Beagle dog liver microsomes assessed as compound remaining after 30 mins; assay type: ADME, Canis lupus familiaris, Microsome; details: read-out: Stability
# CYP2C19 = experiment: In vitro stability in presence of human CYP2C19 assessed as compound remaining at 1 uM after 1 hr; assay type: ADME; details: read-out: Stability
# Canis familiaris = species: Canis familiaris; experiment: Plasma concentration in Beagle dog after 15 to 30 mins; assay type: ADME, organism-based, Canis lupus familiaris; details: in vivo
# CYP3A4 = experiment: In vitro stability in presence of human CYP3A4 assessed as compound remaining at 1 uM after 1 hr; assay type: ADME; details: read-out: Stability
# [3] = Half life in rat at 10 mg/kg, po administered as single dose; assay type: ADME, organism-based; design: dose 10 mg/kg, route oral; details: in vivo
# [4] = Systemic clearance in rat at 2.5 mg/kg, iv administered as single dose; assay type: ADME, organism-based; design: dose 2.5 mg/kg, route intravenous; details: in vivo
# [5] = Systemic clearance in Beagle dog at 1 mg/kg, iv administered as single dose; assay type: ADME, organism-based, Canis lupus familiaris; design: dose 1 mg/kg, route intravenous; details: in vivo
# [6] = Tmax in Beagle dog at 3 mg/kg, po administered as single dose; assay type: ADME, organism-based, Canis lupus familiaris; design: dose 3 mg/kg, route oral; details: in vivo
# [7] = Volume of distribution at steady state in Beagle dog at 1 mg/kg, iv administered as single dose; assay type: ADME, organism-based, Canis lupus familiaris; design: dose 1 mg/kg, route intravenous; details: in vivo, read-out: Vdss
# [8] = Half life in rat at 2.5 mg/kg, iv administered as single dose; assay type: ADME, organism-based; design: dose 2.5 mg/kg, route intravenous; details: in vivo
# [9] = Half life in Beagle dog at 1 mg/kg, iv administered as single dose; assay type: ADME, organism-based, Canis lupus familiaris; design: dose 1 mg/kg, route intravenous; details: in vivo
# [10] = Volume of distribution at steady state in rat at 2.5 mg/kg, iv administered as single dose; assay type: ADME, organism-based; design: dose 2.5 mg/kg, route intravenous; details: in vivo, read-out: Vdss
# [11] = Oral bioavailability in Beagle dog at 3 mg/kg administered as single dose; assay type: ADME, organism-based, Canis lupus familiaris; details: in vivo
# [12] = AUC in rat plasma at 30 mg/kg, po administered as single dose after 6 hrs; assay type: ADME, organism-based; design: time < 6 hr, dose 30 mg/kg, route oral
# [13] = AUC (0 to infinity) in Beagle dog at 3 mg/kg, po administered as single dose; assay type: ADME, organism-based, Canis lupus familiaris; design: time infinity, dose 3 mg/kg, route oral; details: plasma
# [14] = Oral bioavailability in rat at 10 mg/kg administered as single dose; assay type: ADME, organism-based; details: in vivo
# [15] = Cmax in Beagle dog at 3 mg/kg, po administered as single dose; assay type: ADME, organism-based, Canis lupus familiaris; design: dose 3 mg/kg, route oral; details: in vivo
# [16] = Tmax in rat at 10 mg/kg, po administered as single dose; assay type: ADME, organism-based; design: dose 10 mg/kg, route oral; details: in vivo
# [17] = AUC in rat brain raphe magnus at 30 mg/kg, po administered as single dose after 6 hrs; assay type: ADME, organism-based; design: dose 30 mg/kg, route oral; details: read-out: Drug uptake
# Rattus norvegicus = experiment: fAUC in rat plasma at 30 mg/kg, po administered as single dose after 6 hrs; assay type: ADME, organism-based; design: dose 30 mg/kg, route oral; details: in vivo
# [18] = Metabolic stability in human liver microsomes assessed as compound remaining after 30 mins; assay type: ADME, Microsome; details: read-out: Stability
# [19] = AUC (0 to infinity) in rat at 2.5 mg/kg, iv administered as single dose; assay type: ADME, organism-based; design: time infinity, dose 2.5 mg/kg, route intravenous; details: plasma
# [20] = Cmax in rat at 10 mg/kg, po administered as single dose; assay type: ADME, organism-based; design: dose 10 mg/kg, route oral; details: in vivo
# [21] = AUC (0 to infinity) in rat at 10 mg/kg, po administered as single dose; assay type: ADME, organism-based; design: time infinity, dose 10 mg/kg, route oral; details: plasma
# [22] = AUC (0 to infinity) in Beagle dog at 1 mg/kg, iv administered as single dose; assay type: ADME, organism-based, Canis lupus familiaris; design: time infinity, dose 1 mg/kg, route intravenous; details: plasma
# [23] = Metabolic stability in rat liver microsomes assessed as compound remaining after 30 mins; assay type: ADME, Microsome; details: read-out: Stability
# CYP2D6 = experiment: In vitro stability in presence of human CYP2D6 assessed as compound remaining at 1 uM after 1 hr; assay type: ADME; details: read-out: Stability
smiles,measurement,setting,value
CCN(CC)C(=O)c1ccc(C2=CC3(CCNCC3)Oc3ccccc32)c(O)c1 [ADL-5747 FREE BASE],half-life,[1],7.7 h
same,remaining at 0.5 h,[2],63.9%
same,"remaining at 1 h, 1 µM",CYP2C19,78.4%
same,Cp,Canis familiaris,808 ng/mL
same,"remaining at 1 h, 1 µM",CYP3A4,22.5%
same,half-life,[3],4.9 h
same,clearance,[4],55 mL/min/kg
same,clearance,[5],6.33 mL/min/kg
same,Tmax,[6],0.4 h
same,Vd,[7],5.1 L/kg
same,half-life,[8],5.3 h
same,half-life,[9],12.2 h
same,Vd,[10],18.1 L/kg
same,bioavailability,[11],54.5%
same,AUC at 6 h,[12],4610 ng·h/mL
same,AUC(0-inf),[13],4200 ng·h/mL
same,bioavailability,[14],37.6%
same,Cmax,[15],852 ng/mL
same,Tmax,[16],1.3 h
same,AUC at 6 h,[17],105 ng·h/mL
same,fAUC,Rattus norvegicus,990 ng·h/mL
same,remaining at 0.5 h,[18],94.5%
same,AUC(0-inf),[19],780 ng·h/mL
same,Cmax,[20],246 ng/mL
same,AUC(0-inf),[21],1150 ng·h/mL
same,AUC(0-inf),[22],2640 ng·h/mL
same,remaining at 0.5 h,[23],59.7%
same,"remaining at 1 h, 1 µM",CYP2D6,63.2%
